Peptide text beside a SMILES is read from it.

The nature of this assay: Inhibition of (2S,8S,11S,14S)-2-(4-aminobutyl)-14-(3-guanidinopropyl)-8-(4-hydroxybenzyl)-11-(hydroxymethyl)-4,7,10,13,16,32-hexaoxo-36-((3aS,4S,6aR)-2-oxohexahydro-1H-thieno[3,4-d]imidazol-4-yl)-19,22,25,28-tetraoxa-3,6,9,12,15,31-hexaazahexatriacontan-1-oic acid binding to human Hsp72 SBD expressed in Escherichia coli BL21 (DE3) by Western.
For `N=C(N)NCCC[C@H](NC(=O)[C@H](CO)NC(=O)[C@H](Cc1ccc(O)cc1)NC(=O)CNC(=O)[C@@H](N)CCCCN)C(=O)O` (H-KGYSR-OH), the half-inhibitory concentration (IC50) (commonly the concentration needed to halve the response being measured) was 87.3 µM.

For `N=C(N)NCCC[C@H](NC(=O)[C@H](CO)NC(=O)[C@H](Cc1ccc(O)cc1)NC(=O)CNC(=O)[C@@H](N)CCCCN)C(=O)N[C@@H](CCCCN)C(=O)O` (H-KGYSRK-OH), the IC50 was determined as 248 µM.

With `C[C@H](NC(=O)[C@H](CCCCN)NC(=O)[C@H](CCCNC(=N)N)NC(=O)[C@H](CO)NC(=O)[C@H](Cc1ccc(O)cc1)NC(=O)CNC(=O)[C@@H](N)CCCCN)C(=O)O` (H-KGYSRKA-OH), the IC50 is 70 µM.

`C[C@H](NC(=O)[C@H](C)NC(=O)[C@H](CCCCN)NC(=O)[C@H](CCCNC(=N)N)NC(=O)[C@H](CO)NC(=O)[C@H](Cc1ccc(O)cc1)NC(=O)CNC(=O)[C@@H](N)CCCCN)C(=O)O` (H-KGYSRKAA-OH) displayed an IC50 of 6.43 µM.
